Source: ChEMBL document CHEMBL1201862, “PubChem BioAssay data set” (2004)
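A five-concentration, 48-hour dose response in 96-well plates underlies each endpoint, interpolated linearly between surrounding concentrations. Abbreviation: GI50, concentration required for 50% inhibition of growth.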 Calls of active or inactive are those of the source. Rule as the data show it: active = GI50 up to about 1.1 µM and inactive = higher.

Columns and labels:
Test in all cases: DTP human tumour cell line panel, 48 h
XF498 = test system: XF498
SNB-78 = test system: SNB-78
RXF 631 = test system: RXF 631
LXFL 529 = test system: LXFL 529
DMS-114 = test system: DMS-114
M19-MEL = test system: M19-MEL
DMS-273 = test system: DMS-273

Measured: GI50

CC(C)C1COC(c2cccc(C3=N[C@@H](C(C)C)CO3)n2)=N1 (stereo partly specified)
inactive: XF498 > 100 µM | SNB-78 > 100 µM | RXF 631 > 100 µM | LXFL 529 > 100 µM | DMS-114 > 100 µM | M19-MEL > 100 µM | DMS-273 > 100 µM

COC(=O)C(=O)C(CC(=O)Nc1ccc(C)cc1)C(=O)OC (stereo unspecified)
inactive: XF498 > 100 µM | SNB-78 > 100 µM | RXF 631 > 100 µM | LXFL 529 > 100 µM | DMS-114 > 100 µM | M19-MEL > 100 µM

Cc1c(C(Cc2ccccc2N(C)C(=O)/C=C\C(=O)O)c2c[nH]c3ccccc23)c2ccccc2n1C (stereo unspecified)
inactive: XF498 21 µM | SNB-78 21.1 µM | RXF 631 14.2 µM | LXFL 529 12.7 µM | DMS-114 14.2 µM | M19-MEL 15.7 µM | DMS-273 17.1 µM

CCCO/S(=N\S(=O)(=O)c1ccccc1)c1ccccc1[N+](=O)[O-] (stereo unspecified)
inactive: XF498 > 100 µM | SNB-78 > 100 µM | RXF 631 > 100 µM | LXFL 529 > 100 µM | DMS-114 > 100 µM | M19-MEL > 100 µM | DMS-273 > 100 µM

Brc1ccc(/N=c2/nc3ccccn3n3nc(-c4ccccc4)cc23)cc1
inactive: XF498 10.3 µM | RXF 631 31.6 µM | LXFL 529 56.8 µM | DMS-114 99.8 µM | M19-MEL 43.6 µM

COc1ccc2c3c(n(Cc4ccccc4)c(=O)c2c1)-c1cc(OC)c(OC)cc1C3C (stereo unspecified)
inactive: XF498 7.96 µM | SNB-78 57.7 µM | RXF 631 15.1 µM | LXFL 529 10.4 µM | DMS-114 23 µM | M19-MEL 31.4 µM | DMS-273 7.6 µM

C=CCCCN1CCCC(C)C1=S (stereo unspecified)
inactive: XF498 > 100 µM | RXF 631 > 100 µM | DMS-114 > 100 µM | M19-MEL > 100 µM | DMS-273 > 100 µM

COC(=O)c1ccccc1NC(=O)C(=O)NNC(=O)c1ccncc1
inactive: XF498 > 100 µM | RXF 631 > 100 µM | LXFL 529 > 100 µM | DMS-114 > 100 µM | M19-MEL > 100 µM | DMS-273 > 100 µM

CC(C)(C)c1cc(CCC(=O)Nc2ccc(Cl)cc2)nc(S)n1
inactive: XF498 > 100 µM | RXF 631 > 100 µM | LXFL 529 > 100 µM | DMS-114 > 100 µM | M19-MEL > 100 µM | DMS-273 > 100 µM

O=c1[nH]nc2ccccc2c1Cl
inactive: XF498 14.5 µM | SNB-78 13.3 µM | RXF 631 12.9 µM | DMS-114 4.89 µM | M19-MEL 6.92 µM | DMS-273 16.3 µM

CC1(C)CC(=O)C(C(=O)C(=O)NC2=C(Cl)C(=O)c3ccccc3C2=O)C(=O)C1
inactive: XF498 > 100 µM | SNB-78 > 100 µM | RXF 631 82.4 µM | LXFL 529 49.1 µM | DMS-114 67.9 µM | M19-MEL 61.5 µM

CCc1ccccc1NC(=O)C(=O)CC(=O)c1sc(Nc2ccccc2)nc1C
inactive: XF498 > 100 µM | SNB-78 > 100 µM | RXF 631 > 100 µM | LXFL 529 > 100 µM | DMS-114 > 100 µM | M19-MEL > 100 µM | DMS-273 > 100 µM

Cc1ccccc1NC(=O)CC(=O)n1nc(-c2ccccc2)c(/N=N/c2ccc([N+](=O)[O-])cc2)c1-c1ccccc1
inactive: XF498 21.8 µM | SNB-78 26.9 µM | RXF 631 12.4 µM | LXFL 529 24.9 µM | DMS-114 10.6 µM | DMS-273 21 µM
